# Source: patent US20130345234A1, “FGFR AND LIGANDS THEREOF AS BIOMARKERS FOR BREAST CANCER IN HR POSITIVE SUBJECTS” (priority 2011, published 2013)
# What was measured:
# [1] = tested on: FGFR downstream-signaling proteins AKT and ERK; assay: Tyrosine phosphorylation of FGFR downstream-signaling proteins in xenograft tumors; assay type: in vivo, mice; settings: following a single oral dose
# Protocol: (§1) Inhibition was observed up to 24 hours in certain models.
# tumor xenograft models = assay: Antitumor activity in tumor xenograft models in athymic mice; assay type: in vivo; settings: administered orally, all models tested
# Protocol: as §1
# breast cancer cells = assay: Model of disseminated disease: liver colonization from a subcutaneous xenograft primary; assay type: in vivo; settings: mice; subcutaneous (SC) xenograft primary; oral treatment
# Protocol: as §1
# [2] = Phase 2 trial of dovitinib: adverse events; assay type: in vivo, human; settings: as of January 2011
# Protocol: Patient selection was performed according to FISH/CISH for FGFR1 (cut-off≧6 gene copies). […] The primary endpoint was RECIST best overall response rate in pts with measurable disease per external radiology review.
# Inclusion Criteria: • 1. Patients have histological confirmation of breast carcinoma with a clinical diagnosis of IBC based on presence of inflammatory changes in the involved breast, including diffuse erythema and edema (peau d orange), with or without an underlying palpable mass involving the majority of the skin of the breast. Pathological evidence of dermal lymphatic invasion should be noted but is not required for diagnosis. • 2. Patients have stage IV disease with local or distant relapse • 3. Patients have negative HER2 expression by IHC (defined as 0 or 1+), or FISH (fluorescence in situ hybridization). If HER2 is 2+, negative HER2 expression must be confirmed by FISH. • 4. Patients are able to swallow and retain oral medication. • 5. Patients have ECOG performance status 0-2. • 6. Patients have received up to 3 standard chemotherapies for metastatic disease and have relapsed. • 7. Patients have ability and willingness to sign written informed consent. • 8. Patients are 18 years of age or older. • 9. Female patients of childbearing potential (A person not free from menses>2 years or not surgically sterilized) must be willing to use two adequate barrier methods of contraception to prevent pregnancy or agree to abstain from heterosexual activity throughout the study. • 10. Female patients of childbearing potential must have negative serum pregnancy test. • 11. If Patients have been treated with anti-VEGF agents, such as Bevacizumab, last dose must be >4 weeks. • 12. Patients have biopsy tissue of the metastatic disease (including chest wall or regional nodes) available (paraffin blocks or up to 20 unstained slides), if no biopsy tissue available, a biopsy (or thoracentesis if patient has pleural effusion only) of the metastatic disease will be performed to confirm the diagnoses.
# Exclusion Criteria: • 1. Patients are receiving concurrent anti-cancer therapy (chemotherapy, immunotherapy, radiation therapy and biological therapy) while taking study medication. • 2. Abnormal liver functions consisting of any of the following: a) Serum bilirubin>/=1.5×ULN, b) AST and ALT>/=2.5×ULN, (for patients with known liver metastasis, AST and ALT</=5×ULN is allowed), ANC<1.5. • 3. Patients have an active infection and require IV or oral antibiotics. • 4. Impaired cardiac function or clinically significant cardiac diseases, including any of the following: a) History or presence of serious uncontrolled ventricular arrhythmias or presence of atrial fibrillation; b) Clinically significant resting bradycardia (<50 beats per minute); c) LVEF<45% assessed by 2-D echocardiogram (ECHO) or Multiple gated acquisition scanning (MUGA); d) Any of the following within 6 months prior to study entry: myocardial infarction (MI), severe/unstable angina, Coronary Artery Bypass Graft (CABG), Congestive Heart Failure (CHF), Cerebrovascular Accident (CVA), Transient Ischemic Attack (TIA), Pulmonary Embolism (PE); e) Uncontrolled hypertension defined by an SBP>150 and/or a DBP>100 mm Hg with or without anti-hypertensive medication. • 5. History of gastrointestinal disorders (medical disorders or extensive surgery) which may interfere with the absorption of the study drug. • 6. Patients have a concurrent disease or condition that would make them inappropriate for study participation, or any serious medical disorder that would interfere with patients' safety. • 7. Patients with only locally or regionally confined disease without evidence of metastatic disease.
smiles,measurement,setting,value
"CN1CCN(c2ccc3nc(-c4c(N)c5c(F)cccc5[nH]c4=O)[nH]c3c2)CC1 [dovitinib, 4-amino-5-fluoro-3-[6-(4-methylpiperazin-1-yl)-1H-benzimidazol-2-yl]-1H-quinolin-2-one]",duration of inhibition of AKT and ERK phosphorylation,[1]; certain models,up to 24 hours
same,tyrosine phosphorylation of AKT and ERK,[1]; xenograft tumors,inhibited
same,antitumor activity in tumor xenograft models,tumor xenograft models,"anti-tumor responses, ranging from growth inhibition and stasis to regression"
same,colonization of breast cancer cells in the livers,breast cancer cells,significantly reduced
same,"adverse event: asthenia, Group 3",[2]; Group 3,17%
same,"adverse event: diarrhea, Group 3",[2]; Group 3,6%
same,"adverse event: nausea, Group 3",[2]; Group 3,5%
same,adverse event: vomiting,"[2]; all grades, 77 patients with data, 500 mg once daily, 5-day on/2-day off",75%
same,adverse event: asthenia,[2]; all grades,61%
same,adverse event: diarrhea,[2]; all grades,72%
same,adverse event: nausea,[2]; all grades,62%
same,"adverse event: vomiting, grade 3 [Group 3]",[2]; grade 3,6%
